Laboratory results from patent US11427610B2, “Cyclic dinucleotides as anticancer agents” (BRISTOL-MYERS SQUIBB COMPANY, priority 2017, dated 2022).
Like-named read-outs stand apart in the source and are kept apart here.

Tests used:
[1] = tested on: IRF3; test: STING THP1 reporter assay, IRF pathway (Lucia luciferase); type: cell-based; details: THP1-Dual cells, 10% human plasma, 100% activation = 100 μM cGAMP, luciferase readout, read-out: THP1 Reporter Assays EC50 (μM) IRF3
Source text: (§1) THP1-Dual™ cells were derived from the human THP-1 monocyte cell line by stable integration of two inducible reporter constructs. To this end, THP1-Dual™ cells allow the simultaneous study of the NF-κB pathway, by monitoring the activity of SEAP, and the IRF pathway by assessing the activity of a secreted luciferase (Lucia). Both reporter proteins are readily measurable in the cell culture supernatant when using QUANTI-Blue™, a SEAP detection reagent, and QUANTI-Luc™, a luciferase detection reagent.
(§2) THP1-Dual™ cells induce the activation of NF-κB in response to STING agonists. They also trigger the IRF pathway upon stimulation with STING agonists, such as cGAMP. Here, the THP-1-Dual cells were used to assess STING binders for function on the cellular level.
(§3) Serial dilutions of compounds in DMSO were added to low volume 384 well plates at 100 nl/well using an ECHO acoustic dispenser (Labcyte, model 550) to achieve final starting concentration of 100 μM in cell suspension. THP-1 Dual™ STING reporter cells (Invivogen, Dual cells cat #THPD-nfis) were added to the plates with compounds at 15,000 cells in 10 μL per well in RPMI media (Gibco, cat #11875) containing 10% human plasma in a low volume 384-well black wall clear bottom tissue culture plate (Corning, cat #3542) for SEAP assay and low volume solid white plate (Corning, cat #3826) for luciferase assay. One column of the plate was reserved for treatment with cGAMP at 100 μM for 100% activation calculation and one column for no treatment (DMSO only) for baseline activation. Plates were then incubated in 37° C. incubator at 5% CO2 for 20 hours.
(§4) In the SEAP assay, 5 μl of 2× QuantiBlue (Invivogen, cat #Rep-qb2) is added to 384 well black plates seeded with THP1 cells and incubated at 37° C. for 2 hours. Plates were read on the Envision (Perkin Elmer) at 620 nm wavelength (OD620). In the luciferase assay, 5 μl of Quantiluc (Invivogen, Rep-qlc2) is added to white 384 well plates seeded with THP1 cells and read at 5 minutes on the Envision (Perkin Elmer) using a luminescence protocol (RLU). For both cell lines, 100% activation was determined by value (RLU) of THP-1 Dual STING cells stimulated with 100 μM cGAMP (Invivogen, cat #TLRL-NACGA23-5).

[2] = tested on: NFkB; test: STING THP1 reporter assay, NF-κB pathway (SEAP); type: cell-based; details: THP1-Dual cells, 10% human plasma, 100% activation = 100 μM cGAMP, SEAP readout, read-out: THP1 Reporter Assays EC50 (μM) NFkB
Source text: as §1, §2, §3, §4

[3] = target: T1, STING WT: His-TVMV-S-hSTING(155-341)-H232R (Homo sapiens, UniProt Q86WV6, H232R); test: STING HTRF binding assay, STING WT; details: 20 nM His-tagged STING cytoplasmic domain, 200 nM fluorescein-labeled cGAMP analog probe, one hour; read-out: HTRF Binding Assays IC50 (μM) STING WT
T1 construct: His-TVMV-S-hSTING(155-341)-H232R
Procedure: (§5) A time resolved FRET-based competition binding assay was used to assess test article binding to STING WT and STING AQ. His-tagged STING cytoplasmic domain (WT or AQ) at a concentration of 20 nM was incubated with 2.5 nM Tb-labeled anti-His antibody, test compound, and fluorescein-labeled cGAMP analog probe (BioLog cat. no. C195) at a concentration of 200 nM (STING WT) or 40 nM (STING AQ) in PBS containing 0.005% Tween-20 and 0.1% BSA for one hour. Fluorescence at 495 nm and 520 nm was measured using an EnVision microplate reader to quantify FRET between Tb-labeled anti-His antibody and fluorescein-labeled probe. Background was defined as the signal obtained in the absence of STING protein, and background subtracted FRET ratios were normalized to the maximum signal obtained in the absence of test compound. These values were converted to a percent inhibition. Percent inhibition was determined for test compounds at 11 concentrations. The IC50, defined as the concentration of competing test compound needed to reduce specific binding of the probe by 50%, was calculated using the 4 parameter logistic equation to fit the data

[4] = target: T2, STING AQ: His-TVMV-S-hSTING(155-341)-G230A-R293Q (Homo sapiens, UniProt Q86WV6, G230A/H232R/R293Q); test: STING HTRF binding assay, STING AQ; details: 20 nM His-tagged STING cytoplasmic domain, 40 nM fluorescein-labeled cGAMP analog probe, one hour; read-out: HTRF Binding Assays IC50 (μM) STING AQ
T2 construct: His-TVMV-S-hSTING(155-341)-G230A-R293Q
Procedure: as §5

T1 sequence (Q86WV6 with tags, fused parts or gaps H232R): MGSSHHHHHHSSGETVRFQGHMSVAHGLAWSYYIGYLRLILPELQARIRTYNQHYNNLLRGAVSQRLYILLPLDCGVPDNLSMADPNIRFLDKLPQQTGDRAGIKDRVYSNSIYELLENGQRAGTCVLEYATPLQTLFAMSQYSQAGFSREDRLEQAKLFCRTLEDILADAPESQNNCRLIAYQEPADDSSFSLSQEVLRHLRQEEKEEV
T2 sequence (Q86WV6 with tags, fused parts or gaps G230A/H232R/R293Q): as the sequence (Q86WV6 with tags, fused parts or gaps H232R) above, with G99A, R162Q counted along it

Structure (SMILES): C#C[C@@H]1O[C@@H]2COP(=O)(S)O[C@H]3[C@@H](F)[C@H](n4cnc5c(N)ncnc54)O[C@@H]3COP(=O)(S)O[C@@H]1[C@@H]2O (single isomer, unassigned) [Example 1-1]
- EC50 ([1]; Homo sapiens, THP-1, 20 h): 23 µM
- EC50 ([2]; Homo sapiens, THP-1, 20 h): 37 µM
- IC50 [3]: 1.4 µM
- IC50 [4]: 0.06 µM

Structure (SMILES): C#C[C@@H]1O[C@@H]2COP(=O)(S)O[C@H]3[C@@H](F)[C@H](n4cnc5c(N)ncnc54)O[C@@H]3COP(=O)(S)O[C@@H]1[C@@H]2O (single isomer, unassigned) [Example 1-2]
- EC50 ([1]; 20 hours): 24 µM
- EC50 ([2]; 20 hours): 42 µM
- IC50 [3]: 1.7 µM
- IC50 [4]: 0.03 µM

Structure (SMILES): C#C[C@@H]1O[C@@H]2COP(O)(=S)O[C@H]3[C@@H](F)[C@H](n4cnc5c(N)ncnc54)O[C@@H]3COP(O)(=S)O[C@@H]1[C@@H]2O (single isomer, unassigned) [Example 1-3]
- EC50 ([1]; Homo sapiens, THP-1, 20 h): > 100 µM
- EC50 ([2]; Homo sapiens, THP-1, 20 h): > 100 µM
- IC50 [3]: 55.3 µM
- IC50 [4]: 1.9 µM

Structure (SMILES): Nc1ncnc2c1ncn2[C@@H]1O[C@@H]2COP(O)(=S)O[C@@H]3[C@H](O)[C@@H](COP(O)(=S)O[C@H]2[C@H]1F)O[C@H]3C#Cc1ccccc1 (single isomer, unassigned) [Example 2-1]
- EC50 ([1]; 20 hours): > 100 µM
- IC50 [3]: > 100 µM
- IC50 [4]: 19.4 µM

Structure (SMILES): Nc1ncnc2c1ncn2[C@@H]1O[C@@H]2COP(O)(=S)O[C@@H]3[C@H](O)[C@@H](COP(O)(=S)O[C@H]2[C@H]1F)O[C@H]3C#Cc1ccccc1 (single isomer, unassigned) [Example 2-2]
- EC50 ([1]; 20 hours): > 100 µM
- IC50 [3]: 9.6 µM
- IC50 [4]: 0.5 µM

Structure (SMILES): Nc1ncnc2c1ncn2[C@@H]1O[C@@H]2COP(O)(=S)O[C@@H]3[C@H](O)[C@@H](COP(O)(=S)O[C@H]2[C@H]1F)O[C@H]3C#Cc1ccccc1 (single isomer, unassigned) [Example 2-3]
- EC50 ([1]; Homo sapiens, THP-1, 20 h): > 100 µM
- EC50 ([2]; Homo sapiens, THP-1, 20 h): > 100 µM
- IC50 [3]: 20.5 µM
- IC50 [4]: 0.7 µM

Structure (SMILES): Nc1ncnc2c1ncn2[C@@H]1O[C@@H]2COP(O)(=S)O[C@@H]3[C@H](O)[C@@H](COP(O)(=S)O[C@H]2[C@H]1F)O[C@H]3C#Cc1ccccc1 (single isomer, unassigned) [Example 2-4]
- EC50 ([1]; 20 hours): > 100 µM
- IC50 [3]: > 100 µM
- IC50 [4]: 17 µM

Structure (SMILES): Nc1ncnc2c1ncn2[C@@H]1O[C@@H]2COP(O)(=S)O[C@@H]3[C@H](O)[C@@H](COP(O)(=S)O[C@H]2[C@H]1F)O[C@H]3C#Cc1cccnc1 (single isomer, unassigned) [Example 3-1]
- EC50 ([1]; 20 hours): > 100 µM
- EC50 ([2]; 20 hours): > 100 µM
- IC50 [3]: 67.4 µM
- IC50 [4]: 1.3 µM

Structure (SMILES): Nc1ncnc2c1ncn2[C@@H]1O[C@@H]2COP(O)(=S)O[C@@H]3[C@H](O)[C@@H](COP(O)(=S)O[C@H]2[C@H]1F)O[C@H]3C#Cc1cccnc1 (single isomer, unassigned) [Example 3-2]
- EC50 ([1]; 20 hours): > 100 µM
- EC50 ([2]; 20 hours): > 100 µM
- IC50 [3]: 3.4 µM
- IC50 [4]: 0.2 µM

Structure (SMILES): Nc1ncnc2c1ncn2[C@@H]1O[C@@H]2COP(O)(=S)O[C@@H]3[C@H](O)[C@@H](COP(O)(=S)O[C@H]2[C@H]1F)O[C@H]3C#Cc1cccnc1 (single isomer, unassigned) [Example 3-3]
- EC50 ([1]; 20 hours): 6 µM
- EC50 ([2]; 20 hours): 8.1 µM
- IC50 [3]: 1.1 µM
- IC50 [4]: 0.04 µM

Structure (SMILES): Nc1ncnc2c1ncn2[C@@H]1O[C@@H]2COP(O)(=S)O[C@@H]3[C@H](O)[C@@H](COP(O)(=S)O[C@H]2[C@H]1F)O[C@H]3C#Cc1cccnc1 (single isomer, unassigned) [Example 3-4]
- EC50 ([1]; 20 hours): > 100 µM
- EC50 ([2]; 20 hours): > 100 µM
- IC50 [3]: 29.6 µM
- IC50 [4]: 1.4 µM
